Each structure is given as a SMILES string.

Common to all, as to assay: SPR (Biacore T200), multicycle kinetics, global […] Langmuir fit
Format in all cases: binding

Test [1] has as its target T1, BLM (Homo sapiens, UniProt P54132).
T1 construct: recombinant, pET28a-sumo in E. coli BL21(DE3); amine-coupled to CM5 chip

The target of test [2] is T2, BLM (Homo sapiens, UniProt P54132, K38R).
T2 construct: recombinant, pET28a-sumo in E. coli BL21(DE3); amine-coupled to CM5 chip

The target of test [3] is T3, BLM (Homo sapiens, UniProt P54132, K31R).
T3 construct: recombinant, pET28a-sumo in E. coli BL21(DE3); amine-coupled to CM5 chip
T3 sequence (P54132 whole entry K31R): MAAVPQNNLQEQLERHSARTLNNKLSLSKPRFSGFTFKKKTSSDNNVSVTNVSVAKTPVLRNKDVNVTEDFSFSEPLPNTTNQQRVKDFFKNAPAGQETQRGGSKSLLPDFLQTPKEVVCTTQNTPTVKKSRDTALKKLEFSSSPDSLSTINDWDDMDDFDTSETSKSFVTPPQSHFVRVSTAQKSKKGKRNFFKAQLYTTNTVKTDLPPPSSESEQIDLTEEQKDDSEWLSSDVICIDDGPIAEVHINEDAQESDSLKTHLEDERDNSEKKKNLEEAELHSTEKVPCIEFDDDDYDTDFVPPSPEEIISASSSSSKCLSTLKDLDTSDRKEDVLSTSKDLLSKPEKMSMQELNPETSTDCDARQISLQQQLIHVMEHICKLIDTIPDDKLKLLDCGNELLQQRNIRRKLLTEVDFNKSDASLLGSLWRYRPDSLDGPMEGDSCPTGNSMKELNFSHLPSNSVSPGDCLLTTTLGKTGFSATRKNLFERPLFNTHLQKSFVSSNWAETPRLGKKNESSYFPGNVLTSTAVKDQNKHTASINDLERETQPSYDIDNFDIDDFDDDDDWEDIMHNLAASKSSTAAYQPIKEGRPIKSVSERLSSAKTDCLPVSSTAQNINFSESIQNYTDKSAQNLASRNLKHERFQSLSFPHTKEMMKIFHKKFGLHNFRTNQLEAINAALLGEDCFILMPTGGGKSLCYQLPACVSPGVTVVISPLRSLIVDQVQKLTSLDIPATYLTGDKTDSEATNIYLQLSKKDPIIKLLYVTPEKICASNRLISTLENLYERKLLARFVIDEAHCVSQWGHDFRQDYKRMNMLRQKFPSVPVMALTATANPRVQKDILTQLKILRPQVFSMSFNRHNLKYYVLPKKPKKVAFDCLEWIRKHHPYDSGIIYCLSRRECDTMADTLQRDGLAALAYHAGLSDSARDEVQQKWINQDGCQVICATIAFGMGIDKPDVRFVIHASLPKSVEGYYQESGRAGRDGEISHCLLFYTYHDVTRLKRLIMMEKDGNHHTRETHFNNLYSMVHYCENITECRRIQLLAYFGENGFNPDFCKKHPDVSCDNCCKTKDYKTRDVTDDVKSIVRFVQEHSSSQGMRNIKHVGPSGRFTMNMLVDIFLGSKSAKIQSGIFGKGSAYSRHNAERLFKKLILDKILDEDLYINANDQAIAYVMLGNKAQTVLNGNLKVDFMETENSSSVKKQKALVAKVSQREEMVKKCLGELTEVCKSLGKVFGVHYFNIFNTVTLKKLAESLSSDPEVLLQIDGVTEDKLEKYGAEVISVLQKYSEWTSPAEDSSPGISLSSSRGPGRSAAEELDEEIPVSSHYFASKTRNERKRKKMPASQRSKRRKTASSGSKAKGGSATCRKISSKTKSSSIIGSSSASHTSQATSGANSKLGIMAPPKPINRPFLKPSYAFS

T1 sequence (P54132 whole entry): as the sequence (P54132 whole entry K31R) above, with R31K counted along it
T2 sequence (P54132 whole entry K38R): as the sequence (P54132 whole entry K31R) above, with R31K, K38R counted along it

For the compound `CCc1c2c(nc3ccc(OC(=O)N4CCC(N5CCCCC5)CC4)cc13)-c1cc3c(c(=O)n1C2)COC(=O)[C@]3(O)CC` [irinotecan], the Kd was determined as 251 nM on BLM [1], 911 nM on BLM [2] and 776 nM on BLM [3].

For the origin of these results see PMC12241633, “Irinotecan alleviates chemoresistance to anthracyclines through the inhibition of AARS1-mediated BLM lactylation and homologous recombination repair” (Signal Transduction and Targeted Therapy, 2025).
